Source: patent US20250223281A1, “ANTIDIABETIC COMPOUNDS AND COMPOSITIONS” (REZUBIO PHARMACEUTICALS CO., LTD, priority 2022, published 2025)
pEC50: −log10 of the molar value.

Target: T1, GPR40 (Homo sapiens, UniProt O14842)
T1 construct: expressed in transfected cells; host or cells: HEK293 cells stably expressing GPR40 (Hygromycin selection)
Experiment: IP1 accumulation assay in HEK293 cells stably expressing GPR40
Type: cell-based
Description: IP1 accumulation assay was used to evaluate the potency of compounds. HEK293 cells stably expressing GPR40 were cultured in 5% CO2 incubator (ThermoFisher) in maintenance media (Dulbecco's modified Eagle's medium with 4.5 g/L of glucose, 10% fetal bovine serum, 100 μg/mL Hygromycin, and Penicillin (100 U/mL)/Streptomycin (100 μg/mL)) till 100% confluency. Cells were harvested freshly, spun down at 300×g for 5 min, and resuspended in pre-warmed 1× stimulant buffer from Cisbio IP-One HTRF Detection kit (Cisbio). Cell density was adjusted to 2.0×10^6 cells/mL. DMSO was used as blank control and AMG-1638 (CAS #: 1142214-62-7) as positive control. Compounds were prepared at 10 mM in DMSO and 5 nL of 3× serially diluted compounds (10 concentrations) were added to each well of the 384-LDV assay plate (Corning) by using ECHO 550 (Labcyte). Five μL of cells in suspension were transferred into each well by using Multidrop Combi Reagent Dispenser (ThermoFisher). Assay plate was then sealed and incubated at 37° C. for 2 hours. IP-d2 reagent and anti-IP1 reagent were prepared following the manual (Cisbio). Five μL of IP1-d2 and then 5 μL of anti-IP1 antibody was added to each well sequentially. Assay plate was incubated at room temperature for 60 min and then read at 665 nm/615 nm on an Envision plate reader (PerkinElmer). The ratio of values obtained at 665 nm and 615 nm was used for calculation of IP1 accumulation: % Effect=(Ratiosample−Ratioblank)/(RatioAMG-1638−Ratioblank)×100. Dose curve was fitted and EC50 of each compound was calculated by using XLFit.

[1] = IP1 accumulation, HEK293 cells stably expressing GPR40, 2 hours at 37° C., % effect relative to AMG-1638, table of Biological Example 1
[2] = Tables A-1a to A-7b (structure-property relationship), obtained by methods of Biological Example 1

T1 sequence (O14842 whole entry): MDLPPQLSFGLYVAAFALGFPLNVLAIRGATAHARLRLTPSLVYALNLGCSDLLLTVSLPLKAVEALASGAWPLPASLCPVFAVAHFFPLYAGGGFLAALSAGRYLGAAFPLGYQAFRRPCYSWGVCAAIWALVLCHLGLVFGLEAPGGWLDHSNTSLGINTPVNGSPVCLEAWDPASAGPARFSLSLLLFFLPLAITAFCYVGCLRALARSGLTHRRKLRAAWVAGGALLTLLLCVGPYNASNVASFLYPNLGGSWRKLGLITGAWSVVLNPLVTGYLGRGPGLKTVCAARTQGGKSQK

`COc1ccc(F)c(-c2ccc(COc3cccc([C@@H](CC(=O)O)C4CC4)c3)cc2OC(C)(C)Cn2cc(CCCCCCCCCCCCC(=O)NCC[N+](C)(CCC(=O)NCCN)CCC(=O)NCCN)nn2)c1` [Example 30] gave a pEC50 [1] of 6.53.

In the case of `COc1ccc(F)c(-c2ccc(COc3cccc([C@@H](CC(=O)O)C4CC4)c3)cc2OC(C)(C)Cn2cc(CCCCCCCCCCCCCCCCCC(=O)NCCN(CCC(=O)NCCN)CCC(=O)NCCN)nn2)c1` [Example 31], the pEC50 [1] was 8.64.

For `COc1ccc(F)c(-c2ccc(COc3cccc([C@@H](CC(=O)O)C4CC4)c3)cc2OC(C)(C)Cn2cc(CCCCCCCCCCCCCCCCCC(=O)NCC[N+](C)(CCC(=O)NCCN)CCC(=O)NCCN)nn2)c1` [Example 32], the pEC50 [1] was 8.70.

`COc1ccc(F)c(-c2ccc(COc3cccc([C@@H](CC(=O)O)C4CC4)c3)cc2C(OCCCCCn2cc(CCCCCCCCCCCCC(=O)NCCN(CCC(=O)NCCN)CCC(=O)NCCN)nn2)C(C)(C)C)c1` (stereo partly drawn) [Example 33] gave a pEC50 [1] of 7.43.

With `COc1ccc(F)c(-c2ccc(COc3cccc([C@@H](CC(=O)O)C4CC4)c3)cc2C(OCCCCCn2cc(CCCCCCCCCCCCC(=O)NCC[N+](C)(CCC(=O)NCCN)CCC(=O)NCCN)nn2)C(C)(C)C)c1` (stereo partly drawn) [Example 34] the pEC50 [1] was 8.72.

Work on `C[C@H](C(=O)O)[C@H](c1ccc2c(c1)O[C@@H](C1CCN(Cc3cc(-c4cn(CCCCCCCCCCCCCCCCCC(=O)NCC[N+](C)(C)C)nn4)ccc3OC(F)(F)F)CC1)CC2)C1CC1` [Example 35] yielded a pEC50 [1] of 8.93.

For `C[C@H](C(=O)O)[C@H](c1ccc2c(c1)O[C@@H](C1CCN(Cc3cc(-c4cn(CCCCCCCCCCCC(=O)NCCN(CCC(=O)NCCN)CCC(=O)NCCN)nn4)ccc3OC(F)(F)F)CC1)CC2)C1CC1` [Example 36], the pEC50 [1] was 6.39 and the pEC50 [2] was 6.39.

With `COc1ccc(F)c(-c2ccc(COc3cccc([C@@H](CC(=O)O)C4CC4)c3)cc2CC(C)(C)Cn2cc(CCCCCCCCCCCCCCCCCC(=O)NCC[N+](C)(C)C)nn2)c1` [Example 38] the pEC50 [1] was 8.27.

Compound `C[C@H](C(=O)O)[C@H](c1ccc2c(c1)O[C@@H](C1CCN(Cc3cc(-c4cn(CCCCCCCCCCCCCCCC(=O)NCCN(CCC(=O)NCCN)CCC(=O)NCCN)nn4)ccc3OC(F)(F)F)CC1)CC2)C1CC1` [Example 39] has a pEC50 [1] of 9.08 and a pEC50 [2] of 9.08.

`COc1ccc(F)c(-c2ccc(COc3cccc([C@@H](CC(=O)O)C4CC4)c3)cc2C(C)(C)c2cn(CCCCCCCCCCCCCCCC(=O)NCCN(CCC(=O)NCCN)CCC(=O)NCCN)nn2)c1` [Example 40] showed a pEC50 [1] of 7.60.

`COc1ccc(C(=O)N(CC(C)(C)CCCCCCn2cc(CCCCCCCCCCCCCCCCCC(=O)NCC[N+](C)(CCC(=O)NCCN)CCC(=O)NCCN)nn2)c2cccc(C)n2)c(N2CCC(COc3cc([C@@H](CC(=O)O)C4CC4)ccn3)CC2)c1` [Example 42] showed a pEC50 [1] of 9.54.

Compound `COc1ccc(C(=O)N(CC(C)(C)CCCCCCn2cc(CCCCCCCCCCCCC(=O)NCC[N+](C)(CCC(=O)NCCN)CCC(=O)NCCN)nn2)c2cccc(C)n2)c(N2CCC(COc3cc([C@@H](CC(=O)O)C4CC4)ccn3)CC2)c1` [Example 43] has a pEC50 [1] of 9.68 and a pEC50 [2] of 9.68.

Compound `COc1ccc(C(=O)N(CC(C)(C)CCCCCCn2cc(CCCCCCCCCCCCCCCCCC(=O)NCC[N+](C)(C)C)nn2)c2cccc(C)n2)c(N2CCC(COc3cc([C@@H](CC(=O)O)C4CC4)ccn3)CC2)c1` [Example 44] has a pEC50 [1] of 8.76.

For `C[C@H](C(=O)O)[C@H](c1ccc2c(c1)O[C@@H](C1CN(Cc3cc(-c4cn(CCCCCCCCCCCCCCCCCC(=O)NCC[N+](C)(CCC(=O)NCCN)CCC(=O)NCCN)nn4)ccc3OC(F)(F)F)C1)CC2)C1CC1` [Example 45], the pEC50 [1] was 9.17.

Work on `C[C@H](C(=O)O)[C@H](c1ccc2c(c1)O[C@@H](C1CCN(Cc3cc(-c4cn(CCCCCCCCCCCCCCCCCC(=O)NCC[N+](C)(C)CCCS(=O)(=O)[O-])nn4)ccc3OC(F)(F)F)CC1)CC2)C1CC1` [Example 46] yielded a pEC50 [1] of 8.69.

Work on `COc1ccc(F)c(-c2ccc(COc3cccc([C@@H](CC(=O)O)C4CC4)c3)cc2C(C)(C)c2cn(CCCCCCCCCCCCCCC(=O)NCCN(CCC(=O)NCCN)CCC(=O)NCCN)nn2)c1` [Example 47] yielded a pEC50 [1] of 6.93.

For `COc1ccc(F)c(-c2ccc(COc3cccc([C@@H](CC(=O)O)C4CC4)c3)cc2CC(C)(C)Cn2cc(CCCCCCCCCCCCCCCCCC(=O)NCC[N+](C)(C)CCCS(=O)(=O)[O-])nn2)c1` [Example 48], the pEC50 [1] was 8.33.

In the case of `COc1ccc(F)c(-c2ccc(COc3cccc([C@@H](CC(=O)O)C4CC4)c3)cc2CC(C)(C)Cn2cc(CCCCCCCCCCCCCCC(=O)NCCN(CCC(=O)NCCN)CCC(=O)NCCN)nn2)c1` [Example 49], the pEC50 [1] was 7.70 and the pEC50 [2] was 7.70.

In the case of `C[C@H](C(=O)O)[C@H](c1ccc2c(c1)O[C@@H](C1CCN(Cc3cc(-c4cn(CCCCCCCCCCCCCCCCCCN(C)CCOCCOCCOCCOCCN5C[C@H](O)[C@@H](O)[C@H](O)[C@H]5CO)nn4)ccc3OC(F)(F)F)CC1)CC2)C1CC1` [Example 50], the pEC50 [1] was 8.07.

Work on `COc1ccc(F)c(-c2ccc(COc3cccc([C@@H](CC(=O)O)C4CC4)c3)cc2C(C)(C)c2cn(CCCCCCCCCCCCCCC(=O)NCC[N+](C)(CCC(=O)NCCN)CCC(=O)NCCN)nn2)c1` [Example 51] yielded a pEC50 [1] of 6.50.

With `COc1ccc(F)c(-c2ccc(COc3cccc([C@@H](CC(=O)O)C4CC4)c3)cc2CC(C)(C)Cc2cn(CCCCCCCCCCCCCCC(=O)NCCN(CCC(=O)NCCN)CCC(=O)NCCN)nn2)c1` [Example 52] the pEC50 [1] was 7.59 and the pEC50 [2] was 7.59.

Compound `COc1ccc(C(=O)N(CC(C)(C)CCCCCCn2cc(CCCCCCCCC(=O)NCC[N+](C)(CCC(=O)NCCN)CCC(=O)NCCN)nn2)c2cccc(C)n2)c(N2CCC(COc3cc([C@@H](CC(=O)O)C4CC4)ccn3)CC2)c1` [Example 53] has a pEC50 [1] of 8.50 and a pEC50 [2] of 8.42.

Compound `COc1ccc(C(=O)N(CC(C)(C)CCCCCCn2cc(CCCCCCCCCCC(=O)NCC[N+](C)(CCC(=O)NCCN)CCC(=O)NCCN)nn2)c2cccc(C)n2)c(N2CCC(COc3cc([C@@H](CC(=O)O)C4CC4)ccn3)CC2)c1` [Example 54] has a pEC50 [1] of 8.77 and a pEC50 [2] of 8.77.

Compound `COc1ccc(F)c(-c2ccc(COc3cccc([C@@H](CC(=O)O)C4CC4)c3)cc2CC(C)(C)Cn2cc(CCCCCCCCCCCCCC(=O)NCCN(CCC(=O)NCCN)CCC(=O)NCCN)nn2)c1` [Example 55] has a pEC50 [1] of 6.86 and a pEC50 [2] of 6.86.

With `COc1ccc(F)c(-c2ccc(COc3cccc([C@@H](CC(=O)O)C4CC4)c3)cc2CC(C)(C)Cn2cc(CCCCCCCCCCC(=O)NCCN(CCC(=O)NCCN)CCC(=O)NCCN)nn2)c1` [Example 56] the pEC50 [1] was 5.75 and the pEC50 [2] was 5.75.

Work on `COc1ccc(F)c(-c2ccc(COc3cccc([C@@H](CC(=O)O)C4CC4)c3)cc2CC(C)(C)Cn2cc(CCCCCCCCCCCCCC(=O)NCC[N+](C)(CCC(=O)NCCN)CCC(=O)NCCN)nn2)c1` [Example 57] yielded a pEC50 [1] of 7.20 and a pEC50 [2] of 7.03.

`COc1ccc(F)c(-c2ccc(COc3cccc([C@@H](CC(=O)O)C4CC4)c3)cc2CC(C)(C)Cn2cc(CCCCCCCCCCCCCCC(=O)NCC[N+](C)(CCC(=O)NCCN)CCC(=O)NCCN)nn2)c1` [Example 58] gave a pEC50 [1] of 7.44 and a pEC50 [2] of 8.09.

`COc1ccc(F)c(-c2ccc(COc3cccc([C@@H](CC(=O)O)C4CC4)c3)cc2CC(C)(C)Cn2cc(CCCCCCCCCCC(=O)NCC[N+](C)(CCC(=O)NCCN)CCC(=O)NCCN)nn2)c1` [Example 59] was tested, and the pEC50 [1] was 5.90 and the pEC50 [2] was 5.90.

Compound `COc1ccc(C(=O)N(CC(C)(C)CCCCCCn2cc(CCCCCCCCCCCCC(=O)NCCN(CC(=O)NCCN)CC(=O)NCCN)nn2)c2cccc(C)n2)c(N2CCC(COc3cc([C@@H](CC(=O)O)C4CC4)ccn3)CC2)c1` [Example 60] has a pEC50 [1] of 9.36.

In the case of `COc1ccc(C(=O)N(CC(C)(C)CCCCCCn2cc(CCCCCCCCCCCCC(=O)NCC[N+](C)(CC(=O)NCCN)CC(=O)NCCN)nn2)c2cccc(C)n2)c(N2CCC(COc3cc([C@@H](CC(=O)O)C4CC4)ccn3)CC2)c1` [Example 61], the pEC50 [1] was 9.64.

`COc1ccc(C(=O)N(CC(C)(C)CCCCCCCCCCCCCCCCCCCC(=O)NCCN(CC(=O)NCCN)CC(=O)NCCN)c2cccc(C)n2)c(N2CCC(COc3cc([C@@H](CC(=O)O)C4CC4)ccn3)CC2)c1` [Example 64] was tested, and the pEC50 [1] was 9.17.

`COc1ccc(C(=O)N(CC(C)(C)CCCCCCCCCCCCCCCCCCCC(=O)NCC[N+](C)(CCC(=O)NCCN)CCC(=O)NCCN)c2cccc(C)n2)c(N2CCC(COc3cc([C@@H](CC(=O)O)C4CC4)ccn3)CC2)c1` [Example 65, (S)-3-((2-aminoethyl)amino)-N-(3-((2-aminoethyl)amino)-3-oxopropyl)-N-(2-(22-(2-(4-(((4-(2-carboxy-1-cyclopropylethyl)pyridin-2-yl)oxy)methyl)piperidin-1-yl)-4-methoxy-N-(6-methylpyridin-2-yl)benzamido)-21,21-dimethyldocosanamido)ethyl)-N-methyl-3-oxopropan-1-aminium chloride] was tested, and the pEC50 [1] was 9.55.

Compound `C[C@H](C(=O)O)[C@H](c1ccc2c(c1)O[C@@H](C1CCN(Cc3cc(-n4cc(CCCCCCCCCCCCCCCCCC(=O)NCC[N+](C)(C)CCCS(=O)(=O)[O-])nn4)ccc3OC(F)(F)F)CC1)CC2)C1CC1` [Example 66] has a pEC50 [1] of 9.31.
